Data on three compounds can be found in patent US5242946A, “Treating herpes Viral infections” (Bio-Mega, Inc., priority 1988, dated 1993).

Some results are limits rather than exact numbers.

Assay [1] addresses HSV-1 ribonucleotide reductase (Human alphaherpesvirus 1 strain 17, UniProt P08543+P10224). Nature of the assay: Inhibition of HSV-1 ribonucleotide reductase (reduction of CDP). It is filed as biochemical, herpes simplex virus (type 1), strain F. The conditions noted are these: for selective inhibition of the viral ribonucleotide reductase over the cellular ribonucleotide reductase: HSV-1 versus hamster 96-V-2(600) ribonucleotide reductase.

Assay [2] addresses T1, Hamster 96-V-2(600) ribonucleotide reductase (Cricetulus griseus, UniProt G3I2K8+G3I3B7).
T1 construct: overproducing strain; endogenous in cells; host or cells: 96-V-2(600), overproducing strain of a Chinese hamster lung cell line (partially purified)
Description: Inhibition of hamster 96-V-2(600) ribonucleotide reductase (reduction of CDP). To be noted: partially purified enzyme 40 μg, in the presence of adenosine triphosphate (4 mM) and magnesium chloride (11.5 mM). It counts as biochemical, Chinese hamster. On the procedure: Hamster 96-V-2(600) ribonucleotide reductase (partially purified) was obtained from an overproducting strain of a Chinese hamster lung cell line as described by W. H. Lewis and P. R. Scinivasan, Mol. Cell Biol., 3, 1053 (1983).
Samples of the HSV-1 ribonucleotide reductase (65 μg with a specific activity of 26 units per mg) were mixed with increasing concentrations of the test compound, i.e. the naphthalene noted in the title of this example, in a series of tubes. Ribonucleotide reductase activity was assayed by monitoring the reduction of cytidine diphosphate (CDP) as described by Cohen et al., supra. The standard reaction mixture, in a final volume of 60 μl, contained: 50 mM, N-2-hydroxyethylpiperazine-N'-2-ethanesulfonic acid (pH 7.8); 4 mM NaF, 30 mM DL-dithiothreitol (DTT); 1 mM bacitracin, 54 μM CDP and 0.25 μCi of [^3 H]CDP. After 30 minutes of incubation at 37° C., the reaction was stopped by immersing the tube in boiling water for 4 minutes. The precipitate was removed by centrifugation. Nucleotides in the supernatant were converted to nucleosides by enzymatic hydrolysis. The deoxyribonucleosides were subsequently separated from the ribonucleosides by ascending polyethyleneimine-celulose chromatography. […] The results, shown in FIG. 1, are expressed as a percentage of the activity obtained in the controls.

Sequence of HSV-1 ribonucleotide reductase (P10224 whole entry): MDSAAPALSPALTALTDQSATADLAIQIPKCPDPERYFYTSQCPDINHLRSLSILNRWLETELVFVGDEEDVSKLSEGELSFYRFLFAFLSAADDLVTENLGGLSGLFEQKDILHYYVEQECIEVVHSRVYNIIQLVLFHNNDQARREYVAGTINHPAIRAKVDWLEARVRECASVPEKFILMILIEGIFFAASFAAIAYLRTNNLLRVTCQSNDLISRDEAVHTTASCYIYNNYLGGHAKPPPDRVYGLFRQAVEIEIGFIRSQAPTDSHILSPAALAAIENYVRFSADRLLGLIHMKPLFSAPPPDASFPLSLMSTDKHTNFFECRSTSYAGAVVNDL
Sequence of HSV-1 ribonucleotide reductase (P08543 whole entry): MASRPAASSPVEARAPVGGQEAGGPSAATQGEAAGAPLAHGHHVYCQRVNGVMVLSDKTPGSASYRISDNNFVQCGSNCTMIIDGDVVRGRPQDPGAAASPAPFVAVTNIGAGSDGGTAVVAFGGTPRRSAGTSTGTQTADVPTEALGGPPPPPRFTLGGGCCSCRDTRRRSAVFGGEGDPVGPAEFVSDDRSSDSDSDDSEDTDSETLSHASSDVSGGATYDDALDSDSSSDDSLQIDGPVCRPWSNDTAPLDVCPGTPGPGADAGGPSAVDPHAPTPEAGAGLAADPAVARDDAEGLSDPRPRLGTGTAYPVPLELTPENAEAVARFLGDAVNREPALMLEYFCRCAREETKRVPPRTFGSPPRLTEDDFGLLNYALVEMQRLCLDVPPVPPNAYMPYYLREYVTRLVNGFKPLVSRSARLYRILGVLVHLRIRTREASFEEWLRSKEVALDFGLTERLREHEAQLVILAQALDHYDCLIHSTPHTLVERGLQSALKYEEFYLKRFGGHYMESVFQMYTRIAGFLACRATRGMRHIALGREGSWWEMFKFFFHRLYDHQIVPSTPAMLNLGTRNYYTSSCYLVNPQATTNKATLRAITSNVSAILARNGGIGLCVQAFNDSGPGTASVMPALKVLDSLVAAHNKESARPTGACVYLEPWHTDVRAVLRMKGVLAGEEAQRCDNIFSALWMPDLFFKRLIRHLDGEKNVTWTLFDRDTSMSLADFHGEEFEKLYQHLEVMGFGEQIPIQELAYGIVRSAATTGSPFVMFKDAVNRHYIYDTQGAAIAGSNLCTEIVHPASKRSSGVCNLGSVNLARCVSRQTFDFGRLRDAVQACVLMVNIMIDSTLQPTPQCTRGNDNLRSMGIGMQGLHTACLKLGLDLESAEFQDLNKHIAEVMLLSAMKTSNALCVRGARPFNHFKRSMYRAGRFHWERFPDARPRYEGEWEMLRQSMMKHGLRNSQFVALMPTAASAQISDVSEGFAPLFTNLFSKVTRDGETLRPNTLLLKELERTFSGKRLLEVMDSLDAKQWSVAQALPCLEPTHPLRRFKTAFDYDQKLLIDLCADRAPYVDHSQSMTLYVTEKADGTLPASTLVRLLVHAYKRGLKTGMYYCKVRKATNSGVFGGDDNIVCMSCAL
T1 sequence (G3I3B7 entry or part of it): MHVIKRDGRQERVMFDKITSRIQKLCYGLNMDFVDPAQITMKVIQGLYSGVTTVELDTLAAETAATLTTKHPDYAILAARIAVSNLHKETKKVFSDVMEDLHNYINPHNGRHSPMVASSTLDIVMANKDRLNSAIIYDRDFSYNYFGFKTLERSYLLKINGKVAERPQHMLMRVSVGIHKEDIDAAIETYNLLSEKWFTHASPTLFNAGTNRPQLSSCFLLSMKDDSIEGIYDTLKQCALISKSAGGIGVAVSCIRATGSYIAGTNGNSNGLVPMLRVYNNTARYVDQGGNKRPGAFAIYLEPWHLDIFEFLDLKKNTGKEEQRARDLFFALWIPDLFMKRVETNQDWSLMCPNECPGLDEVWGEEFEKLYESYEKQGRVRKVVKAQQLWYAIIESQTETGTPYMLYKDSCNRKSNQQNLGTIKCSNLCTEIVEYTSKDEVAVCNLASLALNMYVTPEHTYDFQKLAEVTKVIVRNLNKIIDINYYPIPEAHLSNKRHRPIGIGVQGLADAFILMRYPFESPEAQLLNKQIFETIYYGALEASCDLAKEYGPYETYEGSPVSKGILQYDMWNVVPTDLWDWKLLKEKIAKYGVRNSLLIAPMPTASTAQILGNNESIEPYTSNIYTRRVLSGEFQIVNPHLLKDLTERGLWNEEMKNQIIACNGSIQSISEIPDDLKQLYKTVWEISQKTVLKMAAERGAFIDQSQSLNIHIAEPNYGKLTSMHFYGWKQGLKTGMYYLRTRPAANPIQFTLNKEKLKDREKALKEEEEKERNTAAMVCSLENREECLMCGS
T1 sequence (G3I2K8 entry or part of it): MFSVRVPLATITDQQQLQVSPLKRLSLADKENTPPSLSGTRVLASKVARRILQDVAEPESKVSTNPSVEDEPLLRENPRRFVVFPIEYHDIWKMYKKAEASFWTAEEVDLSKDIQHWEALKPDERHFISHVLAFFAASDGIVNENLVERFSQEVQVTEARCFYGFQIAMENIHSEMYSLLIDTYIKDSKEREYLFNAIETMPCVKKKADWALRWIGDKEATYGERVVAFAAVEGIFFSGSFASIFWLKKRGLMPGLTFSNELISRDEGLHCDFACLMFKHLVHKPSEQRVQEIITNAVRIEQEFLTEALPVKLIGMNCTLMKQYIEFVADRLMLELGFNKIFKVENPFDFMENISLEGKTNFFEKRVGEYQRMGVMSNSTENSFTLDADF

In the case of `COc1ccc2c(OC(C)=O)c(OC)c(OC)c(OC(C)=O)c2c1` [2,3,6-trimetoxy-1,4-naphthalenediol diacetate], the “selective inhibition of the viral ribonucleotide reductase over the cellular ribonucleotide reductase” value in assay [1] was “selective inhibition”.

For `COc1c(OC)c(OC(C)=O)c2ccccc2c1OC(C)=O` [2,3-dimethoxy-1,4-1,4-naphthalenediol diacetate], the “selective inhibition of the viral ribonucleotide reductase over the cellular ribonucleotide reductase” value in assay [1] is “selective inhibition”. With `COc1c(OC)c(OC(C)=O)c2cc(Cl)ccc2c1OC(C)=O` [6-Chloro-2,3-dimethoxy-1,4-naphthalenediol diacetate], the IC50 – broadly, the concentration at which inhibition is half-maximal – in assay [2] was over 250 µM; in assay [1] (partially purified enzyme 65 μg, 54 μM CDP, 30 minutes at 37° C., pH 7.8, read-out: IC50, fifty percent reduction of the HSV-1 ribonucleotide reductase activity), 31 µM. The “selective inhibition of the viral ribonucleotide reductase over the cellular ribonucleotide reductase” value in assay [1] is “selective inhibition”.
